According to patent publication US20170121315A1, “HETEROBICYCLICALLY SUBSTITUTED 4-OXOBUTANE ACID DERIVATIVES AND USE THEREOF” (priority 2014, published 2017):

Key:
Format in all cases: biochemical
MMP-13 = biological target: T1, MMP-13 (Homo sapiens, UniProt P45452); assay: In vitro MMP-13 inhibition test; conditions: human MMP-13
T1 construct: purchased R&D Systems 511-MP
Excerpt: (§1) The MMP-mediated amidolytic cleavage of a suitable peptide substrate leads to an increase in fluorescent light here too. The signal intensity of the fluorescent light is directly proportional to the enzyme activity. The active concentration of a test compound at which half the enzyme is inhibited (50% signal intensity of the fluorescent light) is reported as the IC50 value.
Recombinant MMP-13 (R&D Systems, 511-MP) is chemically activated in accordance with the manufacturer's instructions using APMA. 1 μl of the test compound to be analysed (as a solution in DMSO, suitable concentrations e.g. 1 nM to 30 μM) is pipetted into 24 μl of activated enzyme (final concentration e.g. 0.1 nM) in reaction buffer (50 mM Tris/HCl pH 7.5, 10 mM CaCl2, 150 mM NaCl, 0.05% Brij®-35) in a white 384-hole microtiter plate (MTP). The enzymatic reaction is started by adding the intramolecularly quenched Mca-Pro-Leu-Gly-Leu-Dpa(Dnp)-Ala-Arg-NH2 substrate (final concentration e.g. 10 μM; R&D Systems, ES-001), so as to result in a total test volume of 50 μl. The course of the MMP-13 reaction is measured by measuring the fluorescence intensity (excitation 320 nm, emission 410 nm) over a suitable period of time (e.g. over 120 min at a temperature of 32° C.).

MMP-16 = biological target: T2, MMP-16 (Homo sapiens, UniProt P51512); assay: In vitro MMP-16 inhibition test; conditions: human MMP-16
T2 construct: purchased R&D Systems 1785-MP
Excerpt: as §1
Recombinant MMP-16 (R&D Systems, 1785-MP) is enzymatically activated in accordance with the manufacturer's instructions using recombinant furin (R&D Systems, 1503-SE). 1 μl of the test compound to be analysed (as a solution in DMSO, suitable concentrations e.g. 1 nM to 30 μM) is pipetted into 24 μl of activated enzyme (final concentration e.g. 1 nM) in reaction buffer (50 mM Tris/HCl pH 7.5, 10 mM CaCl2, 150 mM NaCl, 0.05% Brij®-35) in a white 384-hole microtiter plate (MTP). The enzymatic reaction is started by adding the intramolecularly quenched Mca-Lys-Pro-Leu-Gly-Leu-Dpa(Dnp)-Ala-Arg-NH2 substrate (final concentration e.g. 5 μM; R&D Systems, ES-010), so as to result in a total test volume of 50 μl. The course of the MMP-16 reaction is measured by measuring the fluorescence intensity (excitation 320 nm, emission 410 nm) over a suitable period of time (e.g. over 120 min at a temperature of 32° C.).

[1] = biological target: T3, human macrophage elastase (HME/hMMP-12) (Homo sapiens, UniProt P39900); assay: In vitro HME inhibition test (standard or high-sensitivity); conditions: in some cases mean values, rounded to two significant figures
T3 construct: purchased R&D Systems 917-MP
Outline: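 Autoactivated HME (0.5 nM; high-sensitivity format 0.05 nM, ~16 h) with 5 μM quenched Mca-PLGLEEA-Dap(Dnp)-NH2 substrate in HEPES pH 7.4, NaCl, CaCl2, ZnCl2, EDTA, Brij buffer, 2 h at 37° C. Fluorescence at ex 323/em 393 nm; IC50 from signal versus concentration.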

T3 sequence (P39900 106-470): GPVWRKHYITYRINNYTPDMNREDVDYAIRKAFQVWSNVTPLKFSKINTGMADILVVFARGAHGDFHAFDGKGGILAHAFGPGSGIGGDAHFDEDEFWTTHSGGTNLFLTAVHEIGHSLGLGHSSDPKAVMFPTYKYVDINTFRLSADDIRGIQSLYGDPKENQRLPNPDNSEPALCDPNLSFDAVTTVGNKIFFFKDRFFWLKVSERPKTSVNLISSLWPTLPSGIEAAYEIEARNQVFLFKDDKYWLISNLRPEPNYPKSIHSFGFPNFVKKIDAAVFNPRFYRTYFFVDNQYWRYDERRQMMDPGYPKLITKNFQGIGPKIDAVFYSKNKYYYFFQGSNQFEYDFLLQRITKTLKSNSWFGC
T2 sequence (P51512 120-564 limits assumed): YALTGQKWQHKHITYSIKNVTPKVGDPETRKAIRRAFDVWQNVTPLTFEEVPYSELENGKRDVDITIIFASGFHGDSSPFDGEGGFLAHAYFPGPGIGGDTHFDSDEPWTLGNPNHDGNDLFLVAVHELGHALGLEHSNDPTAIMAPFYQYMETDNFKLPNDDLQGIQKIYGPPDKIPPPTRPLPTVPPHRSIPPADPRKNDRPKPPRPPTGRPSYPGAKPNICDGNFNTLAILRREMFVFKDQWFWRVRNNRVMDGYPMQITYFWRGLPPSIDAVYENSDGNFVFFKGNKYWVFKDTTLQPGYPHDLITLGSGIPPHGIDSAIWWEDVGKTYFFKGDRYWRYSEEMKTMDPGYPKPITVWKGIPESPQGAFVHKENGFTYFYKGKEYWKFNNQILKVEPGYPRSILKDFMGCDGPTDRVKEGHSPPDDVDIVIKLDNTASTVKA

IC50 (MMP-13) [µM]	IC50 (MMP-16) [µM]	IC50 [1] [pM]	SMILES
2.8	> 40	1300	O=C(CC(CCn1nnc2ccccc2c1=O)C(=O)O)c1noc2cc(OCC3CCCCC3)ccc12 (racemic) [Example 153, (+/−)-4-[6-(Cyclohexylmethoxy)-1,2-benzoxazol-3-yl]-4-oxo-2-[2-(4-oxo-1,2,3-benzotriazin-3(4H)-yl)ethyl]butanoic acid]
2.2	38	2400	O=C(CC(CCn1nnc2ccccc2c1=O)C(=O)O)c1onc2cc(OCc3ccccc3)ccc12 (racemic) [Example 156, (+/−)-4-[6-(Benzyloxy)-2,1-benzoxazol-3-yl]-4-oxo-2-[2-(4-oxo-1,2,3-benzotriazin-3(4H)-yl)ethyl]butanoic acid]
0.29	4.9	55	O=C(O)[C@H]1[C@H](Cn2nnc3ccc(C(F)(F)F)cc3c2=O)CC[C@@H]1C(=O)c1cc2cc(OCCc3ccccc3)ccc2o1 (racemic) [Example 157, (+/−)-(1RS,2SR,5RS)-2-{[4-Oxo-6-(trifluoromethyl)-1,2,3-benzotriazin-3(4H)-yl]methyl}-5-{[5-(2-phenylethoxy)-1-benzofur-2-yl]carbonyl}cyclopentanecarboxylic acid (racemate)]
0.37	13	230	CCCCCOc1ccc2c(C(=O)CC(CCn3nnc4ccccc4c3=O)C(=O)O)coc2c1 (single isomer, unassigned) [Example 91, 4-Oxo-2-[2-(4-oxo-1,2,3-benzotriazin-3(4H)-yl)ethyl]-4-[6-(pentyloxy)-1-benzofur-3-yl]butanoic acid]
1.8	> 40	2200	O=C(CC(CCn1nnc2ccccc2c1=O)C(=O)O)c1cc2cc(OCCc3ccccc3)ccc2o1 (single isomer, unassigned; (+)) [Example 21, (+)-4-Oxo-2-[2-(4-oxo-1,2,3-benzotriazin-3(4H)-yl)ethyl]-4-[5-(2-phenylethoxy)-1-benzofur-2-yl]butanoic acid]
5.3	30	810	O=C(CC(CCn1nnc2ccccc2c1=O)C(=O)O)c1cc2cc(OCc3ccc(F)cc3)ccc2o1 (single isomer, unassigned; (+)) [Example 23, (+)-4-{5-[(4-Fluorobenzyl)oxy]-1-benzofur-2-yl}-4-oxo-2-[2-(4-oxo-1,2,3-benzotriazin-3(4H)-yl)ethyl]butanoic acid]
10	> 40	990	O=C(CC(CCn1nnc2ccccc2c1=O)C(=O)O)c1cc2cc(OCc3ccccc3)ccc2o1 (single isomer, unassigned; (+)) [Example 30, (+)-4-[5-(Benzyloxy)-1-benzofur-2-yl]-4-oxo-2-[2-(4-oxo-1,2,3-benzotriazin-3(4H)-yl)ethyl]butanoic acid]
1.6	> 40	1100	NC(=O)c1cccc(COc2ccc3oc(C(=O)CC(CCn4nnc5ccccc5c4=O)C(=O)O)cc3c2)c1 (single isomer, unassigned; (+)) [Example 34, (+)-4-{5-[(3-Carbamoylbenzyl)oxy]-1-benzofur-2-yl}-4-oxo-2-[2-(4-oxo-1,2,3-benzotriazin-3(4H)-yl)ethyl]butanoic acid]
3.6	> 40	1000	CCCCCCCOc1ccc2cc(C(=O)CC(CCn3nnc4ccccc4c3=O)C(=O)O)oc2c1 (single isomer, unassigned; (+)) [Example 69, (+)-4-[6-(Heptyloxy)-1-benzofur-2-yl]-4-oxo-2-[2-(4-oxo-1,2,3-benzotriazin-3(4H)-yl)ethyl]butanoic acid acid]
3.6	21	460	O=C(CC(CCn1nnc2ccccc2c1=O)C(=O)O)c1coc2cc(OCC3CCCC3)ccc12 (single isomer, unassigned; (+)) [Example 80, (+)-4-[6-(Cyclopentylmethoxy)-1-benzofur-3-yl]-4-oxo-2-[2-(4-oxo-1,2,3-benzotriazin-3(4H)-yl)ethyl]butanoic acid]
